Assay results as given in patent EP4603105A1, “PHARMACEUTICAL COMPOSITION CONTAINING CYCLIC COMPOUND HAVING SELECTIVE KRAS INHIBITORY EFFECT AGAINST HRAS AND NRAS” (CHUGAI SEIYAKU KABUSHIKI KAISHA, priority 2022, dated 2024).
Where a SMILES comes first, the peptide text is derived from it. Bridges are numbered along the chain shown (N, C = ends). [ ]: non-standard residue; d: D form. The star is where a group is joined. hPhe(3-Cl-4-CF3) = N[C@@H](CCc1ccc(C(F)(F)F)c(Cl)c1)C(=O)O; NMeGly(cPent) = CN[C@H](C(=O)O)C1CCCC1; NMeF = CN[C@@H](Cc1ccccc1)C(=O)O; NMeD = CN[C@@H](CC(=O)O)C(=O)O; NMeL = CN[C@@H](CC(C)C)C(=O)O; Morpholide = C1CN(*)CCO1; Ac5c = NC1(C(=O)O)CCCC1; Sar = CNCC(=O)O

Experiments:
[1] = biological target: GDP-bound NRAS wild-type protein (Homo sapiens, UniProt P01111); assay: Binding to NRAS by surface plasmon resonance (SPR), KD and KD ratio to KRAS
Chain of GDP-bound NRAS wild-type protein (P01111 whole entry): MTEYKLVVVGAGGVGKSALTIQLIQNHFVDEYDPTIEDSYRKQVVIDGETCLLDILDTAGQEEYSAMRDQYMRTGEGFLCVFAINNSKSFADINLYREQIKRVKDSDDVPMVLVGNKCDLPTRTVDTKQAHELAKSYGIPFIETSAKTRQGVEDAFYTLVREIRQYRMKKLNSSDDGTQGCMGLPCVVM
Summary of the method: (§1)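 Biotinylated GDP-bound RAS was captured at about 100–300 RU. Running buffer: HBS pH 7.4, 10 mM MgCl2, 10 µM GDP, 1 mM DTT, 0.01% Tween 20, 4% DMSO.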

HRAS wild-type protein = HRAS wild-type protein (Homo sapiens, UniProt P01112); assay: Binding to HRAS by surface plasmon resonance (SPR), KD and KD ratio to KRAS
Chain of HRAS wild-type protein (P01112 whole entry): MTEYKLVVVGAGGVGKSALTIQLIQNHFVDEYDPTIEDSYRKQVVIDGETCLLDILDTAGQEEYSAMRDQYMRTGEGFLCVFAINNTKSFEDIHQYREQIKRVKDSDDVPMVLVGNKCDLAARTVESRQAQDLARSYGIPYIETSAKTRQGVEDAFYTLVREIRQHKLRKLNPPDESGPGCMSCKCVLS
Summary of the method: as §1

[2] = test system: human lung cancer strain NCI-H441; type: cell-based
Summary of the method: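 Step one: dispense the test compound in serial DMSO dilutions. Step three: add the reagent and measure […].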

[3] = ratio of KD value for GDP-bound NRAS wild-type protein to KD value for KRAS (SPR)
[4] = ratio of KD value for HRAS wild-type protein to KD value for KRAS (SPR)
[5] = ratio of KD for GDP-bound NRAS wild-type protein to KD for KRAS
[6] = ratio of KD for HRAS wild-type protein to KD for KRAS
[7] = ratio of the KD value with respect to GDP-bound NRAS wild-type protein to the KD value with respect to KRAS
[8] = ratio of the KD value with respect to HRAS wild-type protein to the KD value with respect to KRAS

## CCO[C@@H]1C[C@H]2C(=O)NC3(CC(C)(C)C3)C(=O)N(C)[C@@H](C3CCCC3)C(=O)N(C)[C@H](C(=O)N(C)CC)CC(=O)N(C)[C@@H](CC(F)F)C(=O)N[C@@H]([C@@H](C)CC)C(=O)N(C)CC(=O)N(C)[C@H]3C/C=C\CCN(C3=O)[C@@H](Cc3ccc(C(F)(F)F)cc3)C(=O)N(C)CC(=O)N[C@@H](CCc3cc(F)c(C(F)(F)F)c(F)c3)C(=O)N2C1 [PP1643]
[1]; [3]
  NRAS /KRAS: A (a compound having 10 or more and less than 20 is denoted as A)
HRAS wild-type protein; [4]
  HRAS /KRAS: A (a compound having 10 or more and less than 20 is denoted as A)
[2]
  IC50: 0.0016 µM

## CC[C@H](C)[C@@H]1NC(=O)[C@H](CC(C)C)N(C)C(=O)C[C@@H](C(=O)N2CCOCC2)N(C)C(=O)[C@H](C2CCCC2)N(C)C(=O)C2(CCCC2)NC(=O)[C@@H]2CCCN2C(=O)[C@H](CCc2ccc(C(F)(F)F)c(Cl)c2)NC(=O)CN(C)C(=O)[C@H](Cc2ccccc2)N(C)C(=O)CN(C)C(=O)CN(C)C1=O [PP0039] ([NMeL]I[Sar][Sar][NMeF][Sar][hPhe(3-Cl-4-CF3)]P[Ac5c][NMeGly(cPent)][NMeD]-Morpholide; lactam N-11)
[1]; [5]
  NRAS /KRAS: C (A compound having a KD ratio of 0.1 or more and less than 3 is denoted as C)
HRAS wild-type protein; [6]
  HRAS /KRAS: C (A compound having a KD ratio of 0.1 or more and less than 3 is denoted as C)
[2]
  IC50: 0.0201 µM

## CCO[C@@H]1C[C@H]2C(=O)NC3(CCC3)C(=O)N(C)[C@@H](C3CCCC3)C(=O)N(C)[C@H](C(=O)N(C)C)CC(=O)N(C)[C@@H](CC3CCCC3)C(=O)N[C@@H]([C@@H](C)CC)C(=O)N(C)CC(=O)N(C)[C@H]3C/C=C\CCN(C3=O)[C@@H](Cc3ccc(C)cc3)C(=O)N(C)CC(=O)N[C@@H](CCc3cc(F)c(CC)c(OC)c3)C(=O)N2C1 [PP2674]
[1]; [5]
  NRAS /KRAS: A (a compound having 10 or more and less than 20 is denoted as A)
HRAS wild-type protein; [6]
  HRAS /KRAS: A (a compound having 10 or more and less than 20 is denoted as A)
[2]
  IC50: 0.0486 µM

## CC[C@H](C)[C@@H]1NC(=O)[C@H](CC)N(C)C(=O)C[C@@H](C(=O)N(C)C)N(C)C(=O)[C@H](C2CCCC2)N(C)C(=O)C2(CC(C)(C)C2)NC(=O)[C@@H]2C[C@@H](C)CN2C(=O)[C@H](CCc2ccc(C(F)(F)F)c(OC)c2)NC(=O)CN(C)C(=O)[C@H](Cc2ccc(C)cc2)N2CC/C=C\C[C@@H](C2=O)N(C)C(=O)CN(C)C1=O [PP1838]
[1]; [3]
  NRAS /KRAS: A (a compound having 10 or more and less than 20 is denoted as A)
HRAS wild-type protein; [4]
  HRAS /KRAS: A (a compound having 10 or more and less than 20 is denoted as A)
[2]
  IC50: 0.02 µM

## CCC[C@H]1C(=O)N[C@@H]([C@@H](C)CC)C(=O)N(C)CC(=O)N(C)[C@H]2C/C=C\CCN(C2=O)[C@@H](Cc2ccc(C)cc2)C(=O)N(C)CC(=O)N[C@@H](CCc2cc(F)c(C(F)(F)F)c(F)c2)C(=O)N2CC3(CC3)C[C@H]2C(=O)NC2(CC(C)(C)C2)C(=O)N(C)[C@@H](CC(C)(C)C)C(=O)N(C)[C@H](C(=O)N(C)C)CC(=O)N1C [PP2997]
[1]; [5]
  NRAS /KRAS: A (a compound having 10 or more and less than 20 is denoted as A)
HRAS wild-type protein; [6]
  HRAS /KRAS: B (a compound having 3 or more and less than 10 is denoted as B)
[2]
  IC50: 0.0041 µM

## CCCN(C)C(=O)[C@@H]1CC(=O)N(C)[C@@H](CC(C)C)C(=O)N[C@@H]([C@@H](C)CC)C(=O)N(C)CC(=O)N(C)[C@H]2C/C=C\CCN(C2=O)[C@@H](Cc2ccc(C(F)(F)F)cc2)C(=O)N(C)CC(=O)N[C@@H](CCc2cc(F)c(C(F)(F)F)c(F)c2)C(=O)N2C[C@H](OCC)C[C@H]2C(=O)NC2(CCC2)C(=O)N(C)[C@@H](C2CCCC2)C(=O)N1C [PP1387]
[1]; ratio of KD with respect to GDP-bound NRAS wild-type protein to KD with respect to KRAS
  NRAS /KRAS: A (a compound having 10 or more and less than 20 is denoted as A)
HRAS wild-type protein; ratio of KD with respect to HRAS wild-type protein to KD with respect to KRAS
  HRAS /KRAS: B (a compound having 3 or more and less than 10 is denoted as B)
[2]
  IC50: 0.0153 µM

## CCCN(C)C(=O)[C@@H]1CC(=O)N(C)[C@@H](COCC)C(=O)N[C@@H]([C@@H](C)CC)C(=O)N(C)CC(=O)N(C)[C@H]2C/C=C\CCN(C2=O)[C@@H](Cc2ccc(C(F)(F)F)cc2)C(=O)N(C)CC(=O)N[C@@H](CCc2cc(F)c(C(F)(F)F)c(F)c2)C(=O)N2C[C@H](OCC)C[C@H]2C(=O)NC2(CC(C)(C)C2)C(=O)N(C)[C@@H](C2CCCC2)C(=O)N1C [PP2031]
[1]; [7]
  NRAS /KRAS: B (a compound having 3 or more and less than 10 is denoted as B)
HRAS wild-type protein; [8]
  HRAS /KRAS: B (a compound having 3 or more and less than 10 is denoted as B)
[2]
  IC50: 0.0055 µM

## CCC[C@H]1C(=O)N[C@@H]([C@@H](C)CC)C(=O)N(C)CC(=O)N(C)[C@H]2C/C=C\CCN(C2=O)[C@@H](Cc2ccc(C(F)(F)F)cc2)C(=O)N(C)CC(=O)N[C@@H](CCc2ccc3sc(C)c(C)c3c2)C(=O)N2C[C@H](OCC)C[C@H]2C(=O)NC2(CC(C)(C)C2)C(=O)N(C)[C@@H](C2CCCC2)C(=O)N(C)[C@H](C(=O)N(C)C)CC(=O)N1C [PP2889]
[1]; [5]
  NRAS /KRAS: A (a compound having 10 or more and less than 20 is denoted as A)
HRAS wild-type protein; [6]
  HRAS /KRAS: A (a compound having 10 or more and less than 20 is denoted as A)
[2]
  IC50: 0.0209 µM

## CCCOC[C@H]1C(=O)N[C@@H]([C@@H](C)CC)C(=O)N(C)CC(=O)N(C)[C@H]2C/C=C\CCN(C2=O)[C@@H](Cc2ccc(C(F)(F)F)cc2)C(=O)N(C)CC(=O)N[C@@H](CCc2cc(F)c(C(F)(F)F)c(F)c2)C(=O)N2C[C@H](OCC)C[C@H]2C(=O)NC2(CC(C)(C)C2)C(=O)N(C)[C@@H](C2CCCC2)C(=O)N(C)[C@H](C(=O)N(C)CC)CC(=O)N1C [PP1572]
[1]; [3]
  NRAS /KRAS: A (a compound having 10 or more and less than 20 is denoted as A)
HRAS wild-type protein; [4]
  HRAS /KRAS: A (a compound having 10 or more and less than 20 is denoted as A)
[2]
  IC50: 0.0036 µM

## CCO[C@@H]1C[C@H]2C(=O)NC3(CCCC3)C(=O)N(C)[C@@H](C3CCCC3)C(=O)N(C)[C@H](C(=O)N(C)C)CC(=O)N(C)[C@@H](CC(C)C)C(=O)N[C@@H]([C@@H](C)CC)C(=O)N(C)CC(=O)N(C)[C@H]3C/C=C\CCN(C3=O)[C@@H](Cc3ccc(C)cc3)C(=O)N(C)CC(=O)N[C@@H](CCc3ccc(C(F)(F)F)c(Cl)c3)C(=O)N2C1 [PP2195]
[1]; [7]
  NRAS /KRAS: A (a compound having 10 or more and less than 20 is denoted as A)
HRAS wild-type protein; [8]
  HRAS /KRAS: A (a compound having 10 or more and less than 20 is denoted as A)
[2]
  IC50: 0.0078 µM

## CCO[C@@H]1C[C@H]2C(=O)NC3(CC(C)(C)C3)C(=O)N(C)[C@@H](CC3CCC3)C(=O)N(C)[C@H](C(=O)N(C)C)CC(=O)N(C)[C@@H](COC)C(=O)N[C@@H]([C@@H](C)CC)C(=O)N(C3CC3)CC(=O)N(C)[C@H]3C/C=C\CCN(C3=O)[C@@H](Cc3ccc(C(F)(F)F)cc3)C(=O)N(C)CC(=O)N[C@@H](CCc3cc(F)c(C(F)(F)F)c(F)c3)C(=O)N2C1 [PP2769]
[1]; [5]
  NRAS /KRAS: AA (a compound having 20 or more is denoted as AA)
HRAS wild-type protein; [6]
  HRAS /KRAS: A (a compound having 10 or more and less than 20 is denoted as A)
[2]
  IC50: 0.133 µM

## CCO[C@@H]1C[C@H]2C(=O)NC3(CCC3)C(=O)N(C)[C@@H](C3CCCC3)C(=O)N3CCC[C@@H]3CC(=O)N(C)[C@@H](CC3CC3)C(=O)N[C@@H]([C@@H](C)CC)C(=O)N(C)CC(=O)N(C)[C@H]3C/C=C\CCN(C3=O)[C@@H](Cc3ccc(C(F)(F)F)cc3)C(=O)N(C)CC(=O)N[C@@H](CCc3cc(F)c(C(F)(F)F)c(F)c3)C(=O)N2C1 [PP1613]
[1]; [3]
  NRAS /KRAS: B (a compound having 3 or more and less than 10 is denoted as B)
HRAS wild-type protein; [4]
  HRAS /KRAS: B (a compound having 3 or more and less than 10 is denoted as B)
[2]
  IC50: 0.0147 µM
